IC50 and ED50 data for 19 compounds are collected here from patent publication EP0970067B1, “(METHYLSULFONYL)PHENYL-2-(5H)-FURANONES WITH OXYGEN LINK AS COX-2 INHIBITORS” (Merck Frosst Canada & Co., priority 1997, dated 1998).

Test [1] addresses T1, COX-2 (Homo sapiens, UniProt P35354).
T1 sequence (P35354 18-604): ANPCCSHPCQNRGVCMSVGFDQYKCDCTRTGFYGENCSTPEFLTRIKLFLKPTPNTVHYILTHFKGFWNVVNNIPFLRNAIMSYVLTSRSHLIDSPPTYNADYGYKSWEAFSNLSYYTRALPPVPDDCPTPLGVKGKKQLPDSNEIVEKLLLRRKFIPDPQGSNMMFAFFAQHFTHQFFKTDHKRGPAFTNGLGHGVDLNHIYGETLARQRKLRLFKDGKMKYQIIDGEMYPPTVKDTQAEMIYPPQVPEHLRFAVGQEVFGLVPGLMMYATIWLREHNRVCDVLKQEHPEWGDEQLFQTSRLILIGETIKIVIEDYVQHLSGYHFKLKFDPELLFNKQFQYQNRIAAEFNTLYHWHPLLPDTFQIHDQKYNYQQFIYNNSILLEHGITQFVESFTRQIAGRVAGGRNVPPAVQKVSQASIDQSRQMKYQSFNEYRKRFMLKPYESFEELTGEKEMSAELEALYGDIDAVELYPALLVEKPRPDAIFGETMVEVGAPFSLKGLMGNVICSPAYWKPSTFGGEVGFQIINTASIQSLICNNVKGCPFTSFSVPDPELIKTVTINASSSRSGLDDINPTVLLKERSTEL
Description: Whole cell COX-2 assay using CHO transfected cell line (PGE2 radioimmunoassay). It counts as cell-based. Conditions: CHO [hCOX-2] cells; PGE2 synthesis in response to arachidonic acid. Set-up: expressed in transfected cells; host or cells: CHO [hCOX-2], stably transfected with pCDNAIII. The method, then:
Compounds are tested as inhibitors of cyclooxygenase activity in whole cell cyclooxygenase assays. These assays measure prostaglandin E2 synthesis in response to arachidonic acid, using a radioimmunoassay. Cells used for these assays are chinese hamster ovary (CHO) cell lines which have been stably transfected with an eukaryotic expression vector […] containing either the human Cox-1 or Cox-2 CDNA's. U937 cell microsomes are also used to measure Cox-1 activity.
Chinese hamster ovary (CHO) cell lines which have been stably transfected with an eukaryotic expression vector pCDNAIII containing either the human COX-1 or COX-2 cDNA's are used for the assay. These cell lines are referred to as CHO [hCOX-1] and CHO [hCOX-2], respectively. For cyclooxygenase assays, CHO[hCOX-1] cells from suspension cultures and CHO[hCOX-2] cells prepared by trypsinization of adherent cultures are harvested by centrifugation (300 x g, 10 min) and washed once in HBSS containing 15 mM HEPES, pH 7.4, and resuspended in HBSS, 15 mM HEPES, pH 7.4, at a cell concentration of 1.5 x 10^6 cells/ml. Drugs to be tested are dissolved in DMSO to 66.7-fold the highest test drug concentration. […] Cells (0.3 x 10^6 cells in 200 µl) are preincubated with 3 µl of the test drug or DMSO vehicle for 15 min at 37°C. Working solutions of peroxide-free AA (5.5 µM and 110 µM AA for the CHO [hCOX-1] and CHO [COX-2] assays, respectively) are prepared by a 10-fold dilution of a concentrated AA solution in ethanol into HBSS containing 15 mM HEPES, pH 7.4.
In the assay, inhibition is determined by measuring the amount of prostaglandin E2 (PGE2) synthesized in the presence of arachidonic acid, cyclooxygenase-1 or cyclooxygenase-2 and a putative inhibitor.

Test [2] concerns the target T1, COX-2. As to the kind of experiment: Human whole blood assay, COX-2 (LPS-induced PGE2 production). It counts as cell-based. More on the design: endogenous in cells; host or cells: fresh heparinized human whole blood from volunteers, stimulated with LPS. Conditions: LPS 100 µg/ml, 24 hours at 37°C, read-out: COX-2 (IC50) HWB. The source says:
As well, platelets in whole blood contain a large amount of the COX-1 enzyme. Immediately following blood clotting, platelets are activated through a thrombin-mediated mechanism. This reaction results in the production of thromboxane B2 (TxB2) via activation of COX-1. Thus, the effect of test compounds on TxB2 levels following blood clotting can be examined and used as an index for COX-1 activity. Therefore, the degree of selectivity by the test compound can be determined by measuring the levels of PGE2 after LPS induction (COX-2) and TxB2 following blood clotting (COX-1) in the same assay.
Fresh blood is collected in heparinized tubes by venipuncture from both male and female volunteers. The subjects have no apparent inflammatory conditions and have not taken any NSAIDs for at least 7 days prior to blood collection. Plasma is immediately obtained from a 2mL blood aliquot to use as blank (basal levels of PGE2). The remaining blood is incubated with LPS (100 µg/ml final concentration, Sigma Chem, #L-2630 from E. coli; diluted in 0.1% BSA (Phosphate buffered saline) for 5 minutes at room temperature. Five hundred µL aliquots of blood are incubated with either 2µL of vehicle (DMSO) or 2µL of a test compound at final concentrations varying from 10nM to 30µM for 24 hours at 37°C. At the end of the incubation, the blood is centrifuged at 12,000 x g for 5 minutes to obtain plasma. A 100µL aliquot of plasma is mixed with 400µL of methanol for protein precipitation. The supernatant is obtained and is assayed for PGE2 using a radioimmunoassay kit (Amersham, RPA#530) after conversion of PGE2 to its methyl oximate derivative according to the manufacturer's procedure.

Test [3] deals with Rat Paw Edema. As to the kind of experiment: Rat paw edema assay (carrageenan-induced). The class given is in vivo, Male Sprague-Dawley rats. The settings on record: po, 1 hr before subplantar carrageenan, paw volume measured three hr later. As to the method:
Male Sprague-Dawley rats (150-200 g) are fasted overnight and are given, po, either vehicle (1% methocel or 5% Tween 80) or a test compound. One hr later, a line is drawn using a permanent marker at the level above the ankle in one hind paw to define the area of the paw to be monitored. The paw volume (V0) is measured using a plethysmometer (Ugo-Basile, Italy) based on the principle of water displacement. The animals are then injected subplantarly with […] of 1% carrageenan solution in saline (FMC Corp, Maine) into the paw using an insulin syringe with a 25-gauge needle (i.e. […] carrageenan per paw). Three hr later, the paw volume (V3) is measured and the increases in paw volume (V3 - VO) are calculated. The animals are sacrificed by CO2 asphyxiation and the absence or presence of stomach lesions scored. Data is compared with the vehicle-control values and percent inhibition calculated. All treatment groups are coded to eliminate observer bias.
(Carrageenan injected into the paw causes an acute inflammation.)

For `C=CC(C)OC1=C(c2ccc(S(C)(=O)=O)cc2)C(C)(C)OC1=O` (stereo not drawn) [Example 1, 5,5-Dimethyl-3-((1-methylallyl)oxy)-4-(4-methylsulfonylphenyl)-5H-furan-2-one], the IC50 in test [1] was determined as 50 nM; in test [2], 1900 nM.
Turning to `CC1(C)OC(=O)C(OC(C(F)(F)F)C(F)(F)F)=C1c1ccc(S(C)(=O)=O)cc1` [Example 2, 5,5-Dimethyl-3-(1,1,1,3,3,3-hexafluoropropoxy)-4-(4-methylsulfonyl-phenyl)-5H-furan-2-one], in test [3], the ED50 stood at 1 mg/kg.
`C#CC(C)OC1=C(c2ccc(S(C)(=O)=O)cc2)C(C)(C)OC1=O` (stereo not drawn) [Example 3, 5,5-Dimethyl-3-((1-methyl-2-propynyl)oxy)-4-(4-methylsulfonylphenyl)-5H-furan-2-one] returned an ED50 in test [3] of 2.4 mg/kg. Compared with the last compound, the ED50 is about 2.4-fold higher.
`C=CC(C)(O)COC1=C(c2ccc(S(C)(=O)=O)cc2)C(C)(C)OC1=O` (stereo not drawn) [Example 5, 3-((2-hydroxy-2-methyl-3-butenyl)oxy)-5,5-dimethyl-4-(4-methyl-sulfonyl)phenyl-5H-furan-2-one]: the IC50 in test [1] is 80 nM; in test [2], 600 nM.
The corresponding values for `C=C(C)OC1=C(c2ccc(S(C)(=O)=O)cc2)C(C)(C)OC1=O` [Example 7, 3-(Isopropenyloxy)-5,5-dimethyl-4-(4-methylsulfonylphenyl)-5H-furan-2-one] are 70 nM and 2100 nM.
For the compound `C[C@@H](CO)COC1=C(c2ccc(S(C)(=O)=O)cc2)C(C)(C)OC1=O` [Example 8, 3-(((2S)-3-hydroxy-2-methylpropyl)oxy)-5,5-dimethyl-4(4-methyl-sulfonylphenyl)-5H-furan-2-one], the IC50 in test [1] and in test [2] was 500 nM throughout. Also, in test [3], the ED50 was determined as 3.1 mg/kg.
As for `C[C@H](CO)COC1=C(c2ccc(S(C)(=O)=O)cc2)C(C)(C)OC1=O` [Example 9, 3-(((2R)-3-hydroxy-2-methylpropyl)oxy)-5,5-dimethyl-4-(4-methylsulfonylphenyl)-5H-furan-2-one], the values for the IC50 in test [1] and in test [2] were 400 nM and below 400 nM, respectively.
The matching figures for `CC(CO)OC1=C(c2ccc(S(C)(=O)=O)cc2)C(C)(C)OC1=O` (stereo not drawn) [Example 12, 3-(2-Hydroxy-1-methylethoxy)-5,5-dimethyl-4-(4-methylsulfonyl-phenyl)-5H-furan-2-one]: 500 nM and 4700 nM.
The matching figures for `C#CCOC1=C(c2ccc(S(C)(=O)=O)cc2)C(C)(C)OC1=O` [Example 14, 5,5-Dimethyl-4-(4-methylsulfonylphenyl)3-(2-propynyloxy)-5H-furan-2-one]: 500 nM and 5100 nM.
The matching figures for `C=CCOC1=C(c2ccc(S(C)(=O)=O)cc2)C(C)(C)OC1=O` [Example 15, 3-(Allyloxy)-5,5-dimethyl-4-(4-methylsulfonylphenyl)-5H-furan-2-one]: 200 nM and 1800 nM.
In the case of `CC1(C)OC(=O)C(OC2CCC3(CC2)OCCO3)=C1c1ccc(S(C)(=O)=O)cc1` [Example 16, 3-(1,4-dioxaspiro[4.5]dec-8-yloxy)-5,5-dimethyl-4-(4-methylsulfonyl-phenyl)-5H-furan-2-one], the midpoint of inhibition in test [1], the IC50, lay at 400 nM.
Turning to `CC1(C)OC(=O)C(OC2CCC(F)(F)CC2)=C1c1ccc(S(C)(=O)=O)cc1` [Example 17], the results for the IC50 in test [1] and in test [2] were 300 nM and 600 nM, respectively. The 50% effect level in test [3] (ED50) was put at a dose of 0.9 mg/kg.
Turning to `C=C(C)COC1=C(c2ccc(S(C)(=O)=O)cc2)C(C)(C)OC1=O` [Example 18, 5,5-dimethyl-3-(2-methylallyloxy)-4-(4-methylsulfonylphenyl)-5H-furan-2-one], the IC50 in test [2] is below 400 nM.
On the same count and under the same terms, the result for `CC1(COC2=C(c3ccc(S(C)(=O)=O)cc3)C(C)(C)OC2=O)CC1` [Example 19, 5,5-Dimethyl-3-[(1-methylcyclopropyl)methoxy]-4-(4-methylsulfonyl-phenyl)-5H-furan-2-one] reads below 400 nM.
`C=C(CF)COC1=C(c2ccc(S(C)(=O)=O)cc2)C(C)(C)OC1=O` [Example 20, 3-{[2-(fluoromethyl)allyl]oxy}-5,5-dimethyl-4-(4-methylsulfonyl-phenyl)-5H-furan-2-one]: the IC50 in test [1] came to 200 nM; in test [2] it was 600 nM.
With `CC1(C)OC(=O)C(OCC2(CO)CC2)=C1c1ccc(S(C)(=O)=O)cc1` [Example 21, 3-{[1-(hydroxymethyl)cyclopropyl]methoxy}-5,5-dimethyl-4-(4-methylsulfonylphenyl)-2-5H-furan-2-one], the IC50 in test [1] was determined as 600 nM; in test [2], 900 nM.
On to `CC1(C)OC(=O)C(OCC2(CF)CC2)=C1c1ccc(S(C)(=O)=O)cc1` [Example 23, 3-{[1-(fluoromethyl)cyclopropyl]methoxy}-5,5-dimethyl-4-(4-methylsulfonylphenyl)-5H-furan-2-one], for which, in test [3], it took a dose of 5.9 mg/kg to reach the 50% effect level (ED50).
On to `CC1(C)OC(=O)C(OC2CCCC2=O)=C1c1ccc(S(C)(=O)=O)cc1` (stereo not drawn) [Example 24, 3-((2-oxocyclopentyl)oxy)-5,5-dimethyl-4-(4-methylsulfonylphenyl)-5H-furan-2-one], for which the IC50 was determined as 400 nM in test [1] and 800 nM in test [2].
For `CC1(C)OC(=O)C(OC2CCCC2(F)F)=C1c1ccc(S(C)(=O)=O)cc1` (stereo not drawn) [Example 25], in test [2], the IC50 was below 400 nM.

The term IC50 denotes the midpoint of a concentration-inhibition curve. Broadly, the ED50 is the dose at which the effect has come halfway, by size or by number of responders. The low end stands for greater potency, the high end for weaker potency.
